Columns and labels:
Format in all cases: toxicity, cell-based
U2OS = assay: Incucyte cell viability with U2OS; conditions: human, 10 µM, compound concentration 10 uM
HEK-293T = assay: Incucyte cell viability with HEK293T; conditions: human, 10 µM, compound concentration 10 uM
Fibroblast = assay: Incucyte cell viability with human fibroblast; conditions: 10 µM, compound concentration 10 uM
Also: unitless GR value; below 1 slowed growth and below 0 cell loss.

## NC(=O)c1cc2c(-c3ccc(C(=O)NCc4ccnc(Cl)c4)s3)cccc2s1
U2OS; 0 h, replicate number 1
  Growth Rate: -0.34
U2OS; 0 h, replicate number 2
  Growth Rate: 0.46
U2OS; 6 h, replicate number 1
  Growth Rate: -0.24
U2OS; 6 h, replicate number 2
  Growth Rate: -0.51
U2OS; 12 h, replicate number 1
  Growth Rate: 0.05
U2OS; 12 h, replicate number 2
  Growth Rate: -0.23
U2OS; 18 h, replicate number 1
  Growth Rate: 0
U2OS; 18 h, replicate number 2
  Growth Rate: -0.03
U2OS; 24 h, replicate number 1
  Growth Rate: 0.05
U2OS; 24 h, replicate number 2
  Growth Rate: 0.03
HEK-293T; 6 h, replicate number 1
  Growth Rate: -0.51
HEK-293T; 6 h, replicate number 2
  Growth Rate: -0.71
HEK-293T; 12 h, replicate number 1
  Growth Rate: -0.4
HEK-293T; 12 h, replicate number 2
  Growth Rate: -0.32
HEK-293T; 18 h, replicate number 1
  Growth Rate: -0.29
HEK-293T; 18 h, replicate number 2
  Growth Rate: -0.17
HEK-293T; 24 h, replicate number 1
  Growth Rate: -0.23
HEK-293T; 24 h, replicate number 2
  Growth Rate: -0.09
Fibroblast; 6 h, replicate number 1
  Growth Rate: -1
Fibroblast; 6 h, replicate number 2
  Growth Rate: -0.95
Fibroblast; 12 h, replicate number 2
  Growth Rate: -0.43
Fibroblast; 18 h, replicate number 2
  Growth Rate: -0.25
Fibroblast; 24 h, replicate number 2
  Growth Rate: -0.11

## Cc1ccc(C(=O)Nc2cc(N3CCN(C)CC3)cc(C(F)(F)F)c2)cc1-n1cc(-c2cnn(C)c2C)nn1.Cl
U2OS; 0 h, replicate number 1
  Growth Rate: 0.94
U2OS; 6 h, replicate number 1
  Growth Rate: 0.35
U2OS; 6 h, replicate number 2
  Growth Rate: 0.77
U2OS; 12 h, replicate number 1
  Growth Rate: 0.71
U2OS; 12 h, replicate number 2
  Growth Rate: 0.58
U2OS; 18 h, replicate number 1
  Growth Rate: 0.92
U2OS; 18 h, replicate number 2
  Growth Rate: 0.73
U2OS; 24 h, replicate number 1
  Growth Rate: 0.82
U2OS; 24 h, replicate number 2
  Growth Rate: 0.66
HEK-293T; 0 h, replicate number 1
  Growth Rate: -0.85
Fibroblast; 0 h, replicate number 2
  Growth Rate: 0.61
Fibroblast; 6 h, replicate number 1
  Growth Rate: 0.66
Fibroblast; 6 h, replicate number 2
  Growth Rate: -0.05
Fibroblast; 12 h, replicate number 1
  Growth Rate: 0.43
Fibroblast; 12 h, replicate number 2
  Growth Rate: 0.19
Fibroblast; 18 h, replicate number 1
  Growth Rate: 0.22
Fibroblast; 18 h, replicate number 2
  Growth Rate: 0.15
Fibroblast; 24 h, replicate number 1
  Growth Rate: 0.44
Fibroblast; 24 h, replicate number 2
  Growth Rate: 0.18

## CC(C)(c1ccc(O)cc1)c1ccc(O)cc1 [BISPHENOL A]
U2OS; 12 h, replicate number 2
  Growth Rate: 1
U2OS; 24 h, replicate number 2
  Growth Rate: 0.96
HEK-293T; 6 h, replicate number 1
  Growth Rate: 0.82
Fibroblast; 6 h, replicate number 2
  Growth Rate: -0.05
Fibroblast; 12 h, replicate number 1
  Growth Rate: 0.37
Fibroblast; 12 h, replicate number 2
  Growth Rate: 0.83
Fibroblast; 18 h, replicate number 2
  Growth Rate: 0.7
Fibroblast; 24 h, replicate number 1
  Growth Rate: 0.57

## [2H]C([2H])([2H])NC(=O)c1nnc(NC(=O)C2CC2)cc1Nc1cccc(-c2ncn(C)n2)c1OC [DEUCRAVACITINIB]
U2OS; 0 h, replicate number 1
  Growth Rate: 0.39
U2OS; 6 h, replicate number 1
  Growth Rate: 0.29
U2OS; 6 h, replicate number 2
  Growth Rate: 0.63
U2OS; 12 h, replicate number 1
  Growth Rate: 0.68
U2OS; 12 h, replicate number 2
  Growth Rate: 0.76
U2OS; 18 h, replicate number 1
  Growth Rate: 0.89
U2OS; 18 h, replicate number 2
  Growth Rate: 0.71
U2OS; 24 h, replicate number 1
  Growth Rate: 0.97
U2OS; 24 h, replicate number 2
  Growth Rate: 0.74
HEK-293T; 0 h, replicate number 2
  Growth Rate: 0.09
HEK-293T; 6 h, replicate number 1
  Growth Rate: 0.66
HEK-293T; 6 h, replicate number 2
  Growth Rate: 0.51
HEK-293T; 12 h, replicate number 1
  Growth Rate: 0.82
HEK-293T; 12 h, replicate number 2
  Growth Rate: 0.56
HEK-293T; 18 h, replicate number 1
  Growth Rate: 0.78
HEK-293T; 18 h, replicate number 2
  Growth Rate: 0.68
HEK-293T; 24 h, replicate number 1
  Growth Rate: 0.85
HEK-293T; 24 h, replicate number 2
  Growth Rate: 0.76
Fibroblast; 0 h, replicate number 1
  Growth Rate: 0.51
Fibroblast; 0 h, replicate number 2
  Growth Rate: 0
Fibroblast; 18 h, replicate number 2
  Growth Rate: 0.85
Fibroblast; 24 h, replicate number 2
  Growth Rate: 0.9

## CN[C@@H](C)C(=O)N[C@H](C(=O)N1CCC[C@H]1C(=O)Nc1snnc1-c1ccccc1)C1CCCCC1 [GDC-0152]
U2OS; 0 h, replicate number 1
  Growth Rate: 0.23
U2OS; 12 h, replicate number 2
  Growth Rate: 0.89
U2OS; 18 h, replicate number 2
  Growth Rate: 0.98
U2OS; 24 h, replicate number 2
  Growth Rate: 0.98
HEK-293T; 0 h, replicate number 1
  Growth Rate: 0.81
HEK-293T; 6 h, replicate number 1
  Growth Rate: 0.13
HEK-293T; 6 h, replicate number 2
  Growth Rate: -0.14
HEK-293T; 12 h, replicate number 1
  Growth Rate: -0.36
HEK-293T; 12 h, replicate number 2
  Growth Rate: 0.05
HEK-293T; 18 h, replicate number 1
  Growth Rate: -0.27
HEK-293T; 18 h, replicate number 2
  Growth Rate: 0.07
HEK-293T; 24 h, replicate number 1
  Growth Rate: -0.26
HEK-293T; 24 h, replicate number 2
  Growth Rate: 0.07
Fibroblast; 0 h, replicate number 1
  Growth Rate: -0.28
Fibroblast; 0 h, replicate number 2
  Growth Rate: -0.71
Fibroblast; 6 h, replicate number 1
  Growth Rate: -0.88
Fibroblast; 18 h, replicate number 1
  Growth Rate: 0.81

## C[C@@H]1COCCN1c1cc(=O)n2c(n1)N(Cc1cncc(Cl)c1)[C@H](C(F)(F)F)CC2
U2OS; 0 h, replicate number 1
  Growth Rate: 0.01
U2OS; 6 h, replicate number 1
  Growth Rate: 0.61
U2OS; 12 h, replicate number 1
  Growth Rate: 0.92
U2OS; 12 h, replicate number 2
  Growth Rate: 0.89
U2OS; 18 h, replicate number 1
  Growth Rate: 0.87
U2OS; 18 h, replicate number 2
  Growth Rate: 0.95
U2OS; 24 h, replicate number 1
  Growth Rate: 0.73
HEK-293T; 6 h, replicate number 1
  Growth Rate: -0.3
HEK-293T; 6 h, replicate number 2
  Growth Rate: -0.11
HEK-293T; 12 h, replicate number 1
  Growth Rate: 0.15
HEK-293T; 12 h, replicate number 2
  Growth Rate: 0.44
HEK-293T; 18 h, replicate number 1
  Growth Rate: 0.39
HEK-293T; 18 h, replicate number 2
  Growth Rate: 0.54
HEK-293T; 24 h, replicate number 1
  Growth Rate: 0.39
HEK-293T; 24 h, replicate number 2
  Growth Rate: 0.45
Fibroblast; 0 h, replicate number 2
  Growth Rate: -0.86
Fibroblast; 6 h, replicate number 1
  Growth Rate: 0.36
Fibroblast; 6 h, replicate number 2
  Growth Rate: -0.75
Fibroblast; 12 h, replicate number 1
  Growth Rate: 0.72
Fibroblast; 12 h, replicate number 2
  Growth Rate: 0.29
Fibroblast; 18 h, replicate number 1
  Growth Rate: 0.92
Fibroblast; 24 h, replicate number 1
  Growth Rate: 0.83

## CC(=O)O.NCCCc1c(C(=O)O)[nH]c2ccc(C(=O)Nc3ccccc3)cc12
U2OS; 0 h, replicate number 1
  Growth Rate: 0.53
U2OS; 6 h, replicate number 1
  Growth Rate: 0.76
U2OS; 12 h, replicate number 1
  Growth Rate: 0.87
U2OS; 18 h, replicate number 1
  Growth Rate: 0.92
U2OS; 24 h, replicate number 1
  Growth Rate: 0.93
HEK-293T; 0 h, replicate number 1
  Growth Rate: 0.19
HEK-293T; 0 h, replicate number 2
  Growth Rate: 0.53
HEK-293T; 12 h, replicate number 2
  Growth Rate: 0.96
HEK-293T; 18 h, replicate number 2
  Growth Rate: 0.93
Fibroblast; 0 h, replicate number 1
  Growth Rate: 0.6
Fibroblast; 6 h, replicate number 1
  Growth Rate: 0.95
Fibroblast; 6 h, replicate number 2
  Growth Rate: 0.33
Fibroblast; 12 h, replicate number 2
  Growth Rate: 0.82
Fibroblast; 18 h, replicate number 1
  Growth Rate: 0.95
Fibroblast; 18 h, replicate number 2
  Growth Rate: 0.71
Fibroblast; 24 h, replicate number 2
  Growth Rate: 0.77

## O=C(CCCCCCc1ccccc1)c1ncc(-c2ccccn2)o1
U2OS; 0 h, replicate number 1
  Growth Rate: 0.55
U2OS; 6 h, replicate number 1
  Growth Rate: 0.84
U2OS; 12 h, replicate number 1
  Growth Rate: 0.58
U2OS; 24 h, replicate number 1
  Growth Rate: 0.87
HEK-293T; 6 h, replicate number 1
  Growth Rate: 0.7
HEK-293T; 12 h, replicate number 1
  Growth Rate: 0.79
HEK-293T; 12 h, replicate number 2
  Growth Rate: 0.88
HEK-293T; 18 h, replicate number 1
  Growth Rate: 0.76
HEK-293T; 18 h, replicate number 2
  Growth Rate: 0.88
HEK-293T; 24 h, replicate number 1
  Growth Rate: 0.8
HEK-293T; 24 h, replicate number 2
  Growth Rate: 0.97
Fibroblast; 0 h, replicate number 1
  Growth Rate: -0.98
Fibroblast; 6 h, replicate number 1
  Growth Rate: 0.4
Fibroblast; 6 h, replicate number 2
  Growth Rate: 0.12
Fibroblast; 12 h, replicate number 2
  Growth Rate: 0.63
Fibroblast; 18 h, replicate number 1
  Growth Rate: 0.96
Fibroblast; 18 h, replicate number 2
  Growth Rate: 0.85
Fibroblast; 24 h, replicate number 1
  Growth Rate: 0.93
Fibroblast; 24 h, replicate number 2
  Growth Rate: 0.84

## CC(=O)Nc1nc2c(Oc3cc(-c4ccc(C(F)(F)F)cc4)ncn3)cccc2s1 [AMG-517]
U2OS; 0 h, replicate number 2
  Growth Rate: -0.37
U2OS; 6 h, replicate number 1
  Growth Rate: 0.79
U2OS; 6 h, replicate number 2
  Growth Rate: 0.81
U2OS; 12 h, replicate number 1
  Growth Rate: 0.8
U2OS; 12 h, replicate number 2
  Growth Rate: 0.88
U2OS; 18 h, replicate number 2
  Growth Rate: 0.91
U2OS; 24 h, replicate number 1
  Growth Rate: 0.86
U2OS; 24 h, replicate number 2
  Growth Rate: 0.96
HEK-293T; 0 h, replicate number 1
  Growth Rate: 0.87
HEK-293T; 6 h, replicate number 1
  Growth Rate: 0.63
HEK-293T; 6 h, replicate number 2
  Growth Rate: 0.69
HEK-293T; 12 h, replicate number 1
  Growth Rate: 0.82
HEK-293T; 18 h, replicate number 1
  Growth Rate: 0.67
HEK-293T; 24 h, replicate number 1
  Growth Rate: 0.89
HEK-293T; 24 h, replicate number 2
  Growth Rate: 0.99
Fibroblast; 0 h, replicate number 1
  Growth Rate: -0.1
Fibroblast; 0 h, replicate number 2
  Growth Rate: -1
Fibroblast; 6 h, replicate number 1
  Growth Rate: -0.08
Fibroblast; 6 h, replicate number 2
  Growth Rate: -0.6
Fibroblast; 12 h, replicate number 1
  Growth Rate: -1
Fibroblast; 12 h, replicate number 2
  Growth Rate: 0.8

## CN(C)C(=O)Cn1cc(-c2ccc(-c3nnc4ccccn34)cc2)cn1
U2OS; 0 h, replicate number 1
  Growth Rate: 0.43
U2OS; 6 h, replicate number 1
  Growth Rate: 0.9
U2OS; 12 h, replicate number 1
  Growth Rate: 0.76
U2OS; 12 h, replicate number 2
  Growth Rate: 0.88
U2OS; 18 h, replicate number 2
  Growth Rate: 0.96
U2OS; 24 h, replicate number 1
  Growth Rate: 0.67
U2OS; 24 h, replicate number 2
  Growth Rate: 0.99
HEK-293T; 0 h, replicate number 2
  Growth Rate: 0.91
HEK-293T; 6 h, replicate number 1
  Growth Rate: 0.81
HEK-293T; 12 h, replicate number 1
  Growth Rate: 0.91
Fibroblast; 0 h, replicate number 2
  Growth Rate: -0.65
Fibroblast; 6 h, replicate number 1
  Growth Rate: 0.9
Fibroblast; 12 h, replicate number 2
  Growth Rate: 0.97
Fibroblast; 18 h, replicate number 2
  Growth Rate: 0.9
Fibroblast; 24 h, replicate number 2
  Growth Rate: 0.99

— ChEMBL document CHEMBL5303304, “EUbOPEN Chemogenomics Library - IncuCyte” (2023)
